Results reported in article PMC12527922, “Cocaine chemogenetics blunts drug-seeking by synthetic physiology” (Nature, 2025).
Values joined by “and” are separate entries in the source; they are usually repeats but may differ in a detail not shown here. Identical values can stand only once.

Columns and labels:
[1] = target: T1, unmodified α7–5HT3 (UniProt P23979+P36544, M226I/T225I); test: Membrane potential assay, unmodified α7–5HT3; format: cell-based, human α7 nAChR LBD, mouse 5HT3 IPD
T1 construct: expressed in transfected cells; host or cells: HEK293 (ATCC CRL-1573), pcDNA3.1
T1 sequence (P36544+P23979 fused P36544:T225I/P36544:M226I): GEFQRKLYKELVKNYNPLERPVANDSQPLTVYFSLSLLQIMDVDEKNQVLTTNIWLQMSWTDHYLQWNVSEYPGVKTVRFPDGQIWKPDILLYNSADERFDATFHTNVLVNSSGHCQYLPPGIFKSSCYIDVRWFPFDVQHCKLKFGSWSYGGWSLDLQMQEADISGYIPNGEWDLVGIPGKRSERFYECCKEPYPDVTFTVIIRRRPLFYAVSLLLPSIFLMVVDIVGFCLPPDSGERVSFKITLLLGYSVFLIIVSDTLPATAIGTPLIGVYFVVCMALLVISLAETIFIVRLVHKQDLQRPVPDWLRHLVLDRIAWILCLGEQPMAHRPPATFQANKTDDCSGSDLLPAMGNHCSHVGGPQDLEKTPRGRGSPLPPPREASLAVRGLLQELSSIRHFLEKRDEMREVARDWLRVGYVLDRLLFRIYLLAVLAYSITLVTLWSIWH

[2] = target: coca-5HT3 (α7(L141G,G175K,Y210F,Y217F)–5HT3) (Homo sapiens, UniProt P36544, G175K/L141G/Y210F/Y217F); test: Membrane potential assay, coca-5HT3 in HEK293; conditions: for max response of each dose-response replicate / Max normalized response, AVG / Max normalized response, replicates / Response, dose-response replicates (DR 1-4): coca5HT3; for max response of each dose-response replicate: used for normalization; for Response / Max normalized Response: coca-5HT3; for Response: ED Fig. 2c; for Max normalized Response: ED Fig 3b
Sequence of coca-5HT3 (α7(L141G,G175K,Y210F,Y217F)–5HT3) (P36544 23-224 L141G/G175K/Y210F/Y217F): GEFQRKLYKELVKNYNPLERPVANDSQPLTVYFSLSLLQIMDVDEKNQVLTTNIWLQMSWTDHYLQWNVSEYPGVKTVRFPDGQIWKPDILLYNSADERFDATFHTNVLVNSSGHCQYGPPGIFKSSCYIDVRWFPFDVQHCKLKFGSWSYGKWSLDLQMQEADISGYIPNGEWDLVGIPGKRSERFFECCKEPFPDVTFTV
Sequence of coca-5HT3 (α7(L141G,G175K,Y210F,Y217F)–5HT3) (P23979 242-489, further chain): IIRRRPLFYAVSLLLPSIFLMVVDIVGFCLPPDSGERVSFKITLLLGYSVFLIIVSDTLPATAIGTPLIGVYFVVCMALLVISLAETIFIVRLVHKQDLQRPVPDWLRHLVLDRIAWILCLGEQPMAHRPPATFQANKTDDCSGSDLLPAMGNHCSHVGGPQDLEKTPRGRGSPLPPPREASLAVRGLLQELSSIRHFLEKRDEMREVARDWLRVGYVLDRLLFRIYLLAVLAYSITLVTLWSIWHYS

[3] = a75HT3, [Nicotine] 0.0457247 uM

CN1CCC[C@H]1c1cccnc1 [nicotine]
activity at unmutated α7–5HT3 chimeric channel [1]: agonist | max response of each dose-response replicate ([1]; a75HT3, Nicotine, used for normalization): 0.486 (2×) and 0.554 (2×) and 0.608 (2×) | Max normalized response, AVG [1, 3]: 0.008293 | Max normalized response, replicates [1, 3]: 0 (2×) and 0.02166 (2×) and 0.01151 (2×) | Response, dose-response replicates (DR 1-6) [1, 3]: 0 (2×) and 0.012 (2×) and 0.007 (2×) | Max normalized response, AVG ([1]; a75HT3, [Nicotine] 0.137174 uM): 0.001891 | Max normalized response, replicates ([1]; a75HT3, [Nicotine] 0.137174 uM): 0.002058 (2×) and 0.001805 (2×) and 0.001645 (2×) | Response, dose-response replicates (DR 1-6) ([1]; a75HT3, [Nicotine] 0.137174 uM): 0.001 | Max normalized response, AVG ([1]; a75HT3, [Nicotine] 0.411523 uM): 0.009729 | Max normalized response, replicates ([1]; a75HT3, [Nicotine] 0.411523 uM): 0.004115 (2×) and 0.03069 (2×) and 0 (2×) | Response, dose-response replicates (DR 1-6) ([1]; a75HT3, [Nicotine] 0.411523 uM): 0.002 (2×) and 0.017 (2×) and 0 (2×) | Max normalized response, AVG ([1]; a75HT3, [Nicotine] 1.23457 uM): 0.08187 | Max normalized response, replicates ([1]; a75HT3, [Nicotine] 1.23457 uM): 0.1152 (2×) and 0 (2×) and 0.09704 (2×) | Response, dose-response replicates (DR 1-6) ([1]; a75HT3, [Nicotine] 1.23457 uM): 0.056 (2×) and 0 (2×) and 0.059 (2×) | Max normalized response, AVG ([1]; a75HT3, [Nicotine] 3.7037 uM): 0.6699 | Max normalized response, replicates ([1]; a75HT3, [Nicotine] 3.7037 uM): 0.8354 (2×) and 0.4874 (2×) and 0.5214 (2×) | Response, dose-response replicates (DR 1-6) ([1]; a75HT3, [Nicotine] 3.7037 uM): 0.406 (2×) and 0.27 (2×) and 0.317 (2×) | Max normalized response, AVG ([1]; a75HT3, [Nicotine] 11.1111 uM): 1 | Max normalized response, replicates ([1]; a75HT3, [Nicotine] 11.1111 uM): 1 | Response, dose-response replicates (DR 1-6) ([1]; a75HT3, [Nicotine] 11.1111 uM): 0.486 (2×) and 0.554 (2×) and 0.608 (2×) | Max normalized response, AVG ([1]; a75HT3, [Nicotine] 33.3333 uM): 0.8953 | Max normalized response, replicates ([1]; a75HT3, [Nicotine] 33.3333 uM): 0.8436 (2×) and 0.9711 (2×) and 0.9227 (2×) | Response, dose-response replicates (DR 1-6) ([1]; a75HT3, [Nicotine] 33.3333 uM): 0.41 (2×) and 0.538 (2×) and 0.561 (2×) | Max normalized response, AVG ([1]; a75HT3, [Nicotine] 100 uM): 0.8025 | Max normalized response, replicates ([1]; a75HT3, [Nicotine] 100 uM): 0.9585 (2×) and 0.8503 (2×) and 0.5988 | Response, dose-response replicates (DR 1-6) ([1]; a75HT3, [Nicotine] 100 uM): 0.291 and 0.531 (2×) and 0.517 (2×) | reduced potency for coca-5HT3 versus unmutated α7–5HT3 [2]: greater than 300 fold | max response of each dose-response replicate ([2]; Nicotine): 0.477 and 0.607 and 0.383 and 0.555 | Max normalized response, AVG ([2]; [Nicotine] 1.37037 uM): 0.06271 | Max normalized response, replicates ([2]; [Nicotine] 1.37037 uM): 0.03243 and 0.1069 and 0.09061 and 0.02089 | Response, dose-response replicates (DR 1-4) ([2]; [Nicotine] 1.37037 uM): 0.051 and 0.055 and 0.008 and 0.018 | Max normalized response, AVG ([2]; [Nicotine] 4.11111 uM): 0.05584 | Max normalized response, replicates ([2]; [Nicotine] 4.11111 uM): 0.06667 and 0.05451 and 0.03954 and 0.06266 | Response, dose-response replicates (DR 1-4) ([2]; [Nicotine] 4.11111 uM): 0.026 and 0.024 (2×) and 0.037 | Max normalized response, AVG ([2]; [Nicotine] 12.3333 uM): 0.06127 | Max normalized response, replicates ([2]; [Nicotine] 12.3333 uM): 0.03964 and 0.07966 and 0.08402 and 0.04178 | Response, dose-response replicates (DR 1-4) ([2]; [Nicotine] 12.3333 uM): 0.038 and 0.051 and 0.016 and 0.022 | Max normalized response, AVG ([2]; [Nicotine] 37 uM): 0.1199 | Max normalized response, replicates ([2]; [Nicotine] 37 uM): 0.1225 and 0.1426 and 0.196 and 0.01828 | Response, dose-response replicates (DR 1-4) ([2]; [Nicotine] 37 uM): 0.068 (2×) and 0.119 and 0.007 | Max normalized response, AVG ([2]; [Nicotine] 111 uM): 0.2452 | Max normalized response, replicates ([2]; [Nicotine] 111 uM): 0.3009 and 0.2537 and 0.374 and 0.05222 | Response, dose-response replicates (DR 1-4) ([2]; [Nicotine] 111 uM): 0.121 and 0.227 and 0.02 and 0.167 | Max normalized response, AVG ([2]; [Nicotine] 333 uM): 0.4535 | Max normalized response, replicates ([2]; [Nicotine] 333 uM): 0.5495 and 0.5975 and 0.5157 and 0.1514 | Response, dose-response replicates (DR 1-4) ([2]; [Nicotine] 333 uM): 0.285 and 0.313 and 0.058 and 0.305 | Max normalized response, AVG ([2]; [Nicotine] 1000 uM): 0.6843 | Max normalized response, replicates ([2]; [Nicotine] 1000 uM): 0.8198 and 0.7044 and 0.7249 and 0.4883 | Response, dose-response replicates (DR 1-4) ([2]; [Nicotine] 1000 uM): 0.44 and 0.187 and 0.455 | Max normalized response, AVG ([2]; [Nicotine] 3000 uM): 1 | Max normalized response, replicates ([2]; [Nicotine] 3000 uM): 1 | Response, dose-response replicates (DR 1-4) ([2]; [Nicotine] 3000 uM): 0.477 and 0.607 and 0.383 and 0.555 | Response ([2]; conc 0.0137 uM): 0.106 | Response ([2]; conc 0.123 uM): 0.216 | Response ([2]; conc 0.37 uM): 0.045 | Response ([2]; conc 10 uM): 0.163 | Response ([2]; conc 30 uM): 0.238

C[N+](C)(C)CCO [choline]
EC50 relative to peak physiological levels ([2]; EC50 above peak physiological levels): about 100 fold | Max normalized response, AVG ([2]; Choline Conc 1.37174 uM): 0.0611 | Max normalized response, replicates ([2]; Choline Conc 1.37174 uM): 0.1043 and 0.06655 and 0.04444 and 0.02913 | Response, dose-response replicates (DR 1-4) ([2]; Choline Conc 1.37174 uM): 0.056 and 0.037 and 0.008 and 0.006 | Max normalized response, AVG ([2]; Choline Conc 12.3457 uM): 0.06296 | Max normalized response, replicates ([2]; Choline Conc 12.3457 uM): 0.05773 and 0.04496 and 0.02778 and 0.1214 | Response, dose-response replicates (DR 1-4) ([2]; Choline Conc 12.3457 uM): 0.031 and 0.025 (2×) and 0.005 | Max normalized response, AVG ([2]; Choline Conc 37.037 uM): 0.0516 | Max normalized response, replicates ([2]; Choline Conc 37.037 uM): 0.04283 and 0.03237 and 0.07778 and 0.0534 | Response, dose-response replicates (DR 1-4) ([2]; Choline Conc 37.037 uM): 0.023 and 0.018 and 0.014 and 0.011 | Max normalized response, AVG ([2]; Choline Conc 111.111 uM): 0.04734 | Max normalized response, replicates ([2]; Choline Conc 111.111 uM): 0.03724 and 0.04317 and 0.05556 and 0.0534 | Response, dose-response replicates (DR 1-4) ([2]; Choline Conc 111.111 uM): 0.02 and 0.024 and 0.01 and 0.011 | Max normalized response, AVG ([2]; Choline Conc 333.333 uM): 0.07674 | Max normalized response, replicates ([2]; Choline Conc 333.333 uM): 0.0838 and 0.08993 and 0.05556 and 0.07767 | Response, dose-response replicates (DR 1-4) ([2]; Choline Conc 333.333 uM): 0.045 and 0.05 and 0.01 and 0.016 | Max normalized response, AVG ([2]; Choline Conc 1000 uM): 0.4005 | Max normalized response, replicates ([2]; Choline Conc 1000 uM): 0.4022 and 0.5288 and 0.3556 and 0.3155 | Response, dose-response replicates (DR 1-4) ([2]; Choline Conc 1000 uM): 0.216 and 0.294 and 0.064 and 0.065 | Max normalized response, AVG ([2]; Choline Conc 3000 uM): 1 | Max normalized response, replicates ([2]; Choline Conc 3000 uM): 1 | Response, dose-response replicates (DR 1-4) ([2]; Choline Conc 3000 uM): 0.537 and 0.556 and 0.18 and 0.206 | max response of each dose-response replicate ([2]; Choline): 0.537 and 0.556 and 0.18 and 0.206 | EC50 ([2]; half-maximum effective concentration (EC50), HEK293, fluorescence membrane potential assay): 1210 µM

CCN(CC)CC(=O)Nc1c(C)cccc1C [Lidocaine]
Max normalized Response ([2]; conc 0.137 uM): 0.1106 | Max normalized Response ([2]; conc 3.7 uM): 0.1119 | Max normalized Response ([2]; conc 11.1 uM): 0.1369 | Max normalized Response ([2]; conc 33.3 uM): 0.1879 | Max normalized Response ([2]; conc 100 uM): 0.1519 | activation of coca-5HT3 ([2]; up to 100 µM): did not activate
